Test results from PubChem BioAssay (NCI).
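Tested at 5 concentrations; 48 h exposure; 96-well plates; endpoints linearly interpolated, else capped at highest concentration. TGI denotes the concentration required for complete inhibition of growth.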

What was measured:
Experiment in all cases: NCI-60 cell line screen, 48 h
[1] = system: U251 CNS
[2] = system: CCRF-CEM leukemia
[3] = system: DLD-1 colon
[4] = system: RXF 393 renal
[5] = system: SNB-78 CNS
[6] = system: M14 melanoma
[7] = system: OVCAR-3 ovarian
[8] = system: HT29 colon
[9] = system: SF-268 CNS
[10] = system: ACHN renal
[11] = system: HCC-2998 colon
[12] = system: OVCAR-4 ovarian
[13] = system: SF-539 CNS
[14] = system: LOX IMVI melanoma
[15] = system: HOP-92 NSCLC
[16] = system: KM12 colon
[17] = system: DMS 273 small cell lung
[18] = system: UACC-257 melanoma
[19] = system: LXFL 529 NSCLC
[20] = system: RPMI-8226 leukemia
[21] = system: 786-0 renal
[22] = system: HOP-62 NSCLC
[23] = system: SF-295 CNS
[24] = system: OVCAR-5 ovarian
[25] = system: UACC-62 melanoma
[26] = system: OVCAR-8 ovarian
[27] = system: SK-MEL-2 melanoma
[28] = system: DMS 114 small cell lung
[29] = system: UO-31 renal
[30] = system: SK-OV-3 ovarian
[31] = system: COLO 205 colon
[32] = system: HOP-18 NSCLC
[33] = system: NCI-H23 lung
[34] = system: NCI-H460 lung
[35] = system: A549 NSCLC
[36] = system: HCT-116 colon
[37] = system: HL-60(TB) leukemia
[38] = system: SK-MEL-28 melanoma
[39] = system: MOLT-4 leukemia
[40] = system: SW-620 colon
[41] = system: A498 renal
[42] = system: TK-10 renal
[43] = system: SNB-75 CNS
[44] = system: SNB-19 CNS
[45] = system: IGROV1 ovarian
[46] = system: M19-MEL melanoma
[47] = system: SN12C renal
[48] = system: K-562 leukemia
[49] = system: KM20L2 colon
[50] = system: MALME-3M melanoma
[51] = system: HCT-15 colon
[52] = system: NCI-H522 lung
[53] = system: EKVX NSCLC
[54] = system: SR leukemia
[55] = system: SK-MEL-5 melanoma
[56] = system: NCI-H226 lung
[57] = system: CAKI-1 renal

COc1cc(C(=O)NO)ccc1O
TGI [1]: > 100 µM | TGI [2]: > 100 µM | TGI [3]: > 100 µM | TGI [4]: > 100 µM | TGI [5]: > 100 µM | TGI [6]: > 100 µM | TGI [7]: > 100 µM | TGI [8]: > 100 µM | TGI [9]: > 100 µM | TGI [10]: > 100 µM | TGI [11]: > 100 µM | TGI [12]: > 100 µM | TGI [13]: > 100 µM | TGI [14]: > 100 µM | TGI [15]: > 100 µM | TGI [16]: > 100 µM | TGI [17]: > 100 µM | TGI [18]: > 100 µM | TGI [19]: > 100 µM | TGI [20]: > 100 µM | TGI [21]: > 100 µM | TGI [22]: > 100 µM | TGI [23]: > 100 µM | TGI [24]: > 100 µM | TGI [25]: > 100 µM | TGI [26]: > 100 µM | TGI [27]: > 100 µM | TGI [28]: > 100 µM | TGI [29]: > 100 µM | TGI [30]: > 100 µM | TGI [31]: > 100 µM | TGI [32]: > 100 µM | TGI [33]: > 100 µM | TGI [34]: > 100 µM | TGI [35]: > 100 µM | TGI [36]: > 100 µM | TGI [37]: > 100 µM | TGI [38]: > 100 µM | TGI [39]: > 100 µM | TGI [40]: > 100 µM | TGI [41]: > 100 µM | TGI [42]: > 100 µM | TGI [43]: > 100 µM | TGI [44]: > 100 µM | TGI [45]: > 100 µM | TGI [46]: > 100 µM | TGI [47]: > 100 µM | TGI [48]: > 100 µM | TGI [49]: > 100 µM | TGI [50]: > 100 µM | TGI [51]: > 100 µM | TGI [52]: > 100 µM | TGI [53]: > 100 µM

O=C1/C(=C/c2ccccc2)CN(C(=O)C(F)(F)F)C/C1=C\c1ccccc1
TGI [1]: 2.95 µM | TGI [2]: 8.03 µM | TGI [3]: 4.27 µM | TGI [4]: 3.63 µM | TGI [5]: 11.4 µM | TGI [6]: 3.29 µM | TGI [7]: 10.7 µM | TGI [8]: 3.01 µM | TGI [10]: 4.99 µM | TGI [12]: 4.72 µM | TGI [13]: 4.06 µM | TGI [14]: 2.5 µM | TGI [16]: 3.98 µM | TGI [17]: 2.95 µM | TGI [54]: 5.48 µM | TGI [18]: 3.32 µM | TGI [19]: 3.26 µM | TGI [20]: 0.932 µM | TGI [21]: 3.28 µM | TGI [22]: 29.6 µM | TGI [23]: 3.13 µM | TGI [24]: 8.37 µM | TGI [25]: 3.76 µM | TGI [26]: 3.37 µM | TGI [27]: 23.1 µM | TGI [28]: 3.33 µM | TGI [29]: 4.77 µM | TGI [31]: 5.11 µM | TGI [32]: 18.4 µM | TGI [33]: 4.52 µM | TGI [34]: 2.97 µM | TGI [35]: 12.1 µM | TGI [36]: 1.08 µM | TGI [55]: 3.26 µM | TGI [37]: 2.85 µM | TGI [38]: 3.45 µM | TGI [39]: 79.6 µM | TGI [40]: 1.83 µM | TGI [41]: 4.41 µM | TGI [42]: 13.4 µM | TGI [43]: 19 µM | TGI [44]: 14.8 µM | TGI [45]: 5.55 µM | TGI [46]: 3.1 µM | TGI [47]: 3.12 µM | TGI [48]: > 100 µM | TGI [49]: 4.34 µM | TGI [50]: 15.9 µM | TGI [51]: 5.33 µM | TGI [52]: 5.77 µM

Cc1ccccc1-n1c(=O)sc2c(=O)n(-c3ccccc3)c(=S)[nH]c21
TGI [1]: > 100 µM | TGI [2]: > 100 µM | TGI [3]: > 100 µM | TGI [4]: > 100 µM | TGI [5]: > 100 µM | TGI [6]: > 100 µM | TGI [7]: > 100 µM | TGI [8]: > 100 µM | TGI [9]: > 100 µM | TGI [10]: > 100 µM | TGI [11]: > 100 µM | TGI [12]: > 100 µM | TGI [13]: > 100 µM | TGI [15]: > 100 µM | TGI [16]: > 100 µM | TGI [17]: > 100 µM | TGI [54]: > 100 µM | TGI [18]: > 100 µM | TGI [19]: > 100 µM | TGI [20]: > 100 µM | TGI [21]: > 100 µM | TGI [22]: > 100 µM | TGI [23]: > 100 µM | TGI [24]: > 100 µM | TGI [25]: > 100 µM | TGI [26]: > 100 µM | TGI [27]: > 100 µM | TGI [28]: > 100 µM | TGI [29]: > 100 µM | TGI [30]: > 100 µM | TGI [31]: > 100 µM | TGI [32]: > 100 µM | TGI [33]: > 100 µM | TGI [34]: > 100 µM | TGI [35]: > 100 µM | TGI [56]: > 100 µM | TGI [36]: > 100 µM | TGI [55]: > 100 µM | TGI [37]: > 100 µM | TGI [38]: > 100 µM | TGI [39]: > 100 µM | TGI [40]: > 100 µM | TGI [41]: > 100 µM | TGI [43]: > 100 µM | TGI [44]: > 100 µM | TGI [57]: > 100 µM | TGI [45]: > 100 µM | TGI [46]: > 100 µM | TGI [47]: > 100 µM | TGI [48]: > 100 µM | TGI [49]: > 100 µM | TGI [50]: > 100 µM | TGI [51]: > 100 µM | TGI [52]: > 100 µM | TGI [53]: > 100 µM
